Oligonucleotides are written 5' to 3', each unit as a sugar letter and its base; * is a phosphorothioate linkage, no mark a phosphodiester; rarer units and linkages stand in square brackets, end groups in braces. Plain capitals give the bases only. d = 2'-deoxy (DNA)

What all share (assay type): cell-based, human
The subject of one data set is Hela S3 cells. Briefly: Relative colony forming efficiency, lipofectin +/- oligonucleotide 4 hours. Conditions: Hela S3 cervix carcinoma cells; averages of 2-8 determinations. The gist of the method:
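HeLa S3 cells were exposed to phosphorothioate antisense oligonucleotide (0.2 μM unless stated) with lipofectin for 4 h, then grown 7–10 days in 10% FBS medium. Methylene blue-stained colonies were counted and expressed as percent survival relative to lipofectin-only controls.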

Another data set has as its system A549 lung cell carcinoma. Put plainly: Relative colony forming efficiency (Example 17, Table 13). The following applies: averages of 2-8 determinations. The gist of the method:
(§1)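 Phosphorothioate antisense oligonucleotides were delivered to tumour cell cultures with 2.5 μg DOTMA/DOPE (Lipofectin) over four hours, at 0.2 μM unless otherwise indicated. Surviving colonies were stained with methylene blue and scored. Values are % inhibition of colony formation relative to lipofectin-only controls.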

Data set [1] relates to H596 lung adenosquamous carcinoma cells. Described as above. The following applies: averages of 2-8 determinations. In short, it runs like this:
as §1

Data set [2] relates to HepG2 hepatocellular carcinoma. Described as above. The following applies: averages of 2-8 determinations. In short, it runs like this: as §1
Data set [3] relates to MDA PaCa-2 pancreatic cell carcinoma. Described as above. Conditions: MIA PaCa-2 pancreatic cell carcinoma; averages of 2-8 determinations. The gist of the method:
as §1

Data set [4] relates to MDA-MB-231 breast cell adenocarcinoma. The description is as above. The following applies: averages of 2-8 determinations. In short, it runs like this:
as §1

Data set [5] has as its system PC-3 prostrate cell adenocarcinoma. Described as above. The following applies: averages of 2-8 determinations. The gist of the method:
as §1

Data set [6] concerns T-47D breast ductal carcinoma. The data set is described as above. The following applies: averages of 2-8 determinations. In short, it runs like this:
as §1

Data set [7] deals with T24 bladder cell carcinoma. The data set is described as above. The following applies: averages of 2-8 determinations. The gist of the method: as §1
In data set [8] the test system is HCT116 colon cell carcinoma. The description is as above. Conditions: averages of 2-8 determinations. In short, it runs like this:
as §1

Consider “GGGAGAGCATAGTGGAGGCG (antisense dG*dG*dG*dA*dG*dA*dG*dC*dA*dT*dA*dG*dT*dG*dG*dA*dG*dG*dC*dG) [AS-II-185-20]”, for which the “Reduced relative colony forming efficiency, Hela S3 (% inhibition of colony forming ability)” value in the data set with Hela S3 cells is recorded as 19.38%. The “Reduced relative colony forming efficiency, A549 (% inhibition of colony forming ability)” value in the data set with A549 lung cell carcinoma was found to be 71.51%. In addition, the “Reduced relative colony forming efficiency, 11596 (% inhibition of colony forming ability)” value in data set [1] amounted to 24.53%. In addition, the “Reduced relative colony forming efficiency, HepG2 (% inhibition of colony forming ability)” value in [2] is listed as 53.44%. Further, the “Reduced relative colony forming efficiency, MIA PaCa-2 (% inhibition of colony forming ability)” value in [3] is recorded as 29.32%. Moreover, in data set [4], the “Reduced relative colony forming efficiency, MDA-MB-231 (% inhibition of colony forming ability)” value came to 17.4%. The “Reduced relative colony forming efficiency, PC-3 (% inhibition of colony forming ability)” value in data set [5] was 4.37%. The “Reduced relative colony forming efficiency, T-47D (% inhibition of colony forming ability)” value in data set [6] worked out at 94.52%. For the same substance, in data set [7], the “Reduced relative colony forming efficiency, T24 (% inhibition of colony forming ability)” value came out at 21.94%.
For “TGCCTCCGACCCTTCCCA (antisense dT*dG*dC*dC*dT*dC*dC*dG*dA*dC*dC*dC*dT*dT*dC*dC*dC*dA) [AS-II-16-18]”, in the data set with Hela S3 cells, the “Reduced relative colony forming efficiency, Hela S3 (% inhibition of colony forming ability)” value amounted to 68.7%. Also, the “Reduced relative colony forming efficiency, A549 (% inhibition of colony forming ability)” value in the data set on A549 lung cell carcinoma was determined as 81.1%. The “Reduced relative colony forming efficiency, 11596 (% inhibition of colony forming ability)” value in [1] was determined as 34.5%. Also, the “Reduced relative colony forming efficiency, HCT116 (% inhibition of colony forming ability)” value in data set [8] came out at 78.57%. Moreover, in data set [2], the “Reduced relative colony forming efficiency, HepG2 (% inhibition of colony forming ability)” value is reported as 75.89%. In addition, the “Reduced relative colony forming efficiency, MDA-MB-231 (% inhibition of colony forming ability)” value in data set [4] was determined as 62.59%. The “Reduced relative colony forming efficiency, PC-3 (% inhibition of colony forming ability)” value in data set [5] stood at 89.48%. In data set [6], the “Reduced relative colony forming efficiency, T-47D (% inhibition of colony forming ability)” value came to 7.13%. The “Reduced relative colony forming efficiency, T24 (% inhibition of colony forming ability)” value in data set [7] is 25.74%.
For the substance “CCCCTTCAGCGGCG (antisense dC*dC*dC*dC*dT*dT*dC*dA*dG*dC*dG*dG*dC*dG) [AS-II-253-14]”, the “Reduced relative colony forming efficiency, Hela S3 (% inhibition of colony forming ability)” value in the data set with Hela S3 cells is listed as 65.18%. In the data set on A549 lung cell carcinoma, the “Reduced relative colony forming efficiency, A549 (% inhibition of colony forming ability)” value amounted to 61.62%. The “Reduced relative colony forming efficiency, 11596 (% inhibition of colony forming ability)” value in [1] is listed as 0.81%. Besides, in data set [8], the “Reduced relative colony forming efficiency, HCT116 (% inhibition of colony forming ability)” value was 53.28%. Moreover, the “Reduced relative colony forming efficiency, HepG2 (% inhibition of colony forming ability)” value in [2] came to 42%. Besides, in data set [5], the “Reduced relative colony forming efficiency, PC-3 (% inhibition of colony forming ability)” value was 67.26%. Also, in data set [6], the “Reduced relative colony forming efficiency, T-47D (% inhibition of colony forming ability)” value was 27.09%. Further, the “Reduced relative colony forming efficiency, T24 (% inhibition of colony forming ability)” value in data set [7] was 19.41%.
Consider “CGGCGGCGTGTT (antisense dC*dG*dG*dC*dG*dG*dC*dG*dT*dG*dT*dT) [AS-II-288-12]”, for which, in the data set with Hela S3 cells, the “Reduced relative colony forming efficiency, Hela S3 (% inhibition of colony forming ability)” value is listed as 57.63%. Besides, the “Reduced relative colony forming efficiency, A549 (% inhibition of colony forming ability)” value with A549 lung cell carcinoma is recorded as 70.49%. Moreover, in data set [1], the “Reduced relative colony forming efficiency, 11596 (% inhibition of colony forming ability)” value was 12.67%. In addition, in data set [8], the “Reduced relative colony forming efficiency, HCT116 (% inhibition of colony forming ability)” value turned out to be 67.57%. For the same substance, in data set [2], the “Reduced relative colony forming efficiency, HepG2 (% inhibition of colony forming ability)” value turned out to be 65.89%. For the same substance, the “Reduced relative colony forming efficiency, MIA PaCa-2 (% inhibition of colony forming ability)” value in data set [3] stood at 30.09%. The “Reduced relative colony forming efficiency, MDA-MB-231 (% inhibition of colony forming ability)” value in data set [4] amounted to 52.1%. Besides, the “Reduced relative colony forming efficiency, PC-3 (% inhibition of colony forming ability)” value in [5] was 74.01%. Moreover, the “Reduced relative colony forming efficiency, T24 (% inhibition of colony forming ability)” value in data set [7] is given as 30.38%.
Regarding “GCGAGCGGGACACGGAGGGA (antisense dG*dC*dG*dA*dG*dC*dG*dG*dG*dA*dC*dA*dC*dG*dG*dA*dG*dG*dG*dA) [AS-II-201-20]”, the “Reduced relative colony forming efficiency, Hela S3 (% inhibition of colony forming ability)” value in the data set on Hela S3 cells came out at 90.87%. In addition, the “Reduced relative colony forming efficiency, A549 (% inhibition of colony forming ability)” value in the data set with A549 lung cell carcinoma was determined as 90.55%. In data set [1], the “Reduced relative colony forming efficiency, 11596 (% inhibition of colony forming ability)” value amounted to 49.6%. In addition, the “Reduced relative colony forming efficiency, HCT116 (% inhibition of colony forming ability)” value in [8] is 45.56%. The “Reduced relative colony forming efficiency, HepG2 (% inhibition of colony forming ability)” value in data set [2] was 59.32%. For the same substance, the “Reduced relative colony forming efficiency, MDA-MB-231 (% inhibition of colony forming ability)” value in [4] is listed as 25.17%. In data set [5], the “Reduced relative colony forming efficiency, PC-3 (% inhibition of colony forming ability)” value is on record as 65.08%. In data set [6], the “Reduced relative colony forming efficiency, T-47D (% inhibition of colony forming ability)” value turned out to be 98.53%. Further, the “Reduced relative colony forming efficiency, T24 (% inhibition of colony forming ability)” value in [7] is recorded as 96.2%.
As to “G*CC*TCCG*ACC*CTTC*CC*ATT*G (antisense dG*dCdC*dTdCdCdG*dAdCdC*dCdTdTdC*dCdC*dAdTdT*dG) [AS-II-13-20]”, the “Reduced relative colony forming efficiency, Hela S3 (% inhibition of colony forming ability)” value in the data set with Hela S3 cells amounted to 19.85%. Further, in the data set on A549 lung cell carcinoma, the “Reduced relative colony forming efficiency, A549 (% inhibition of colony forming ability)” value was determined as 32.3%. In addition, the “Reduced relative colony forming efficiency, 11596 (% inhibition of colony forming ability)” value in [1] was found to be 19.63%. Also, in data set [8], the “Reduced relative colony forming efficiency, HCT116 (% inhibition of colony forming ability)” value was 6.95%. Besides, the “Reduced relative colony forming efficiency, HepG2 (% inhibition of colony forming ability)” value in data set [2] turned out to be 24.11%. Moreover, the “Reduced relative colony forming efficiency, MDA-MB-231 (% inhibition of colony forming ability)” value in data set [4] is listed as 45.45%. Also, in [5], the “Reduced relative colony forming efficiency, PC-3 (% inhibition of colony forming ability)” value amounted to 52.38%. Besides, in data set [6], the “Reduced relative colony forming efficiency, T-47D (% inhibition of colony forming ability)” value was 15.33%. Further, in [7], the “Reduced relative colony forming efficiency, T24 (% inhibition of colony forming ability)” value is 18.99%.
Take “ATCGCCGCCGTG (antisense dA*dT*dC*dG*dC*dC*dG*dC*dC*dG*dT*dG) [AS-II-1775-12]”: the “Reduced relative colony forming efficiency, Hela S3 (% inhibition of colony forming ability)” value in the data set with Hela S3 cells was 68.61%. The “Reduced relative colony forming efficiency, A549 (% inhibition of colony forming ability)” value with A549 lung cell carcinoma is recorded as 63.55%. Moreover, the “Reduced relative colony forming efficiency, 11596 (% inhibition of colony forming ability)” value in [1] was 18.6%. In [2], the “Reduced relative colony forming efficiency, HepG2 (% inhibition of colony forming ability)” value came out at 43.97%. For the same substance, in [3], the “Reduced relative colony forming efficiency, MIA PaCa-2 (% inhibition of colony forming ability)” value was determined as 27.78%. Besides, the “Reduced relative colony forming efficiency, MDA-MB-231 (% inhibition of colony forming ability)” value in data set [4] was 48.6%. In [5], the “Reduced relative colony forming efficiency, PC-3 (% inhibition of colony forming ability)” value is reported as 78.17%. Moreover, the “Reduced relative colony forming efficiency, T24 (% inhibition of colony forming ability)” value in [7] is given as 85.54%.
Consider “CGCGCTCCCGGCCC (antisense dC*dG*dC*dG*dC*dT*dC*dC*dC*dG*dG*dC*dC*dC) [AS-II-79-14]”, for which, in the data set with Hela S3 cells, the “Reduced relative colony forming efficiency, Hela S3 (% inhibition of colony forming ability)” value turned out to be 28.64%. Further, in the data set on A549 lung cell carcinoma, the “Reduced relative colony forming efficiency, A549 (% inhibition of colony forming ability)” value was 79.17%. Besides, the “Reduced relative colony forming efficiency, HCT116 (% inhibition of colony forming ability)” value in data set [8] worked out at 45.56%. In addition, in data set [2], the “Reduced relative colony forming efficiency, HepG2 (% inhibition of colony forming ability)” value is recorded as 70.81%. For the same substance, in data set [3], the “Reduced relative colony forming efficiency, MIA PaCa-2 (% inhibition of colony forming ability)” value came to 38.89%. Also, the “Reduced relative colony forming efficiency, MDA-MB-231 (% inhibition of colony forming ability)” value in data set [4] stood at 48.6%. For the same substance, the “Reduced relative colony forming efficiency, PC-3 (% inhibition of colony forming ability)” value in data set [5] was 85.32%. In addition, the “Reduced relative colony forming efficiency, T-47D (% inhibition of colony forming ability)” value in [6] stood at 70.81%. Besides, the “Reduced relative colony forming efficiency, T24 (% inhibition of colony forming ability)” value in data set [7] came to 38.4%.

For the origin of these results see US20080311126A1, “Antisense Oligonucleotides Directed to Ribonucleotide Reducatase R2 and Uses Thereof in Combination Therapies for the Treatment of Cancer” (Genesense Technologies, Inc, priority 2004, published 2008).
